Consider 13 compounds from US20230399287A1, “NOVEL COMPOUNDS” (Sitryx Therapeutics Limited, priority 2020, published 2023).

In one series the test system is IL-6. As to the kind of experiment: THP-1 AlphaLISA IL-6 cytokine assay. Type of series: cell-based. The following applies: Homo sapiens, THP-1, differentiated THP-1 cells, LPS 24 hr then Nigericin 1 hour. Here is the method: (§1) Measuring Inhibitory Effects on IL-1V and IL-6 Cytokine Output from THP-1s
(§2) The cytokine inhibition profiles of compounds of formula (I) were determined in a differentiated THP-1 cell assay. All assays were performed in RPMI-1640 growth medium (Gibco), supplemented with 10% fetal bovine serum (FBS; Gibco), 1% penicillin-streptomycin and 1% sodium pyruvate unless specified otherwise. The IL-1β and IL-6 cytokine inhibition assays were run in a background of differentiated THP-1 cells as described below. All reagents described were from Sigma-Aldrich unless specified otherwise. Compounds were prepared as 10 mM DMSO stocks.
(§3) THP-1 cells were expanded as a suspension up to 80% confluence in appropriate growth medium. Cells were harvested, suspended, and treated with an appropriate concentration of phorbol 12-myristate 13-acetate (PMA) over a 72 hr period (37° C./5% CO2).
(§4) Following 72 hrs of THP-1 cell incubation, cellular medium was removed and replaced with fresh growth media containing 1% of FBS. Working concentrations of compounds were prepared separately in 10% FBS treated growth medium and pre-incubated with the cells for 30 minutes (37° C./5% CO2). Following the 30 minute compound pre-incubation, THP-1s were treated with an appropriate concentration of LPS and the THP-1s were subsequently incubated for a 24 hr period (37° C./5% CO2). An appropriate final concentration of Nigericin was then dispensed into the THP-1 plates and incubated for 1 hour (37° C./5% CO2) before THP-1 supernatants were harvested and collected in separate polypropylene 96-well holding plates.
(§5) Reagents from each of the IL-1β and IL-6 commercial kits (Perkin Elmer) were prepared and run according to the manufacturer's instructions. Subsequently, fluorescence signal detection in a microplate reader was measured (EnVision® Multilabel Reader, Perkin Elmer).
(§6) Percentage inhibition was calculated per cytokine by normalising the sample data to the high and low controls used within each plate (+/−LPS respectively). Percentage inhibition was then plotted against compound concentration and the 50% inhibitory concentration ([…]) was determined from the resultant concentration-response curve.
On the technique in general: In Alpha technology, singlet oxygen from a donor bead excites a nearby acceptor bead.

Series [1] has as its system hepatocytes. As to the kind of experiment: Hepatocyte stability assay (mouse). Type of series: in vitro ADME. The following applies: 10 μM compound, 60 min. From the text:
(§7) Defrosted cryo-preserved hepatocytes (viability>70%) were used to determine the metabolic stability of a compound via calculation of intrinsic clearance (Clint; a measure of the removal of a compound from the liver in the absence of blood flow and cell binding). Clearance data are particularly important for in vitro work as they can be used in combination with in vivo data to predict the half-life and oral bioavailability of a drug.
(§8) The metabolic stability in hepatocytes assay involved a time-dependent reaction using both positive and negative controls. The cells must be pre-incubated at 37° C. then spiked with test compound (and positive control); samples taken at pre-determined time intervals were analysed to monitor the change in concentration of the initial drug compound over 60 minutes. A buffer incubation reaction (with no hepatocytes present) acted as a negative control and two cocktail solutions, containing compounds with known high and low clearance values (verapamil/7-hydroxycoumarin and propranolol/diltiazem), acted as positive controls. • 1. The assay was run with a cell concentration of 0.5×10^6 cells/mL in Leibovitz buffer. • 2. All compounds and controls were run in duplicate. • 3. Compound concentration was 10 μM. • 4. All compounds and controls were incubated with both cells and buffer to show turnover is due to hepatic metabolism. • 5. All wells on the incubation plate had 326.7 μL of either cells or buffer added. • 6. Prior to assay, cell and buffer-only incubation plates were preincubated for 10 mins at 37° C. • 7. The assay was initiated by adding compounds, 3.3 μL of 1 mM in 10% DMSO-90% Buffer; final DMSO concentration is 0.1%. • 8. Samples were taken at regular timepoints (0, 5, 10, 20, 40, 60 min) until 60 mins. • 9. Sample volume was 40 μL and added to 160 μL of crash solvent (acetonitrile with internal standard) and stored on ice. • 10. At the end of the assay, the crash plates were centrifuged at 3500 rpm for 20 mins at 4° C. • 11. 80 μL of clear supernatant was removed and mixed with 80 μL of deionised water before being analysed by LC-MS/MS.
(§9) Raw LC-MS/MS data were exported to, and analysed in, Microsoft Excel for determination of intrinsic clearance. The percentage remaining of a compound was monitored using the peak area of the initial concentration as 100%. Intrinsic clearance and half-life values were calculated using a graph of the natural log of percentage remaining versus the time of reaction in minutes. Half-life (min) and intrinsic clearance (Clint in μL min^−1 10^−6 cells) values were calculated using the gradient of the graph (the elimination rate constant, k) and Equations 1 and 2.

Series [2] can be described thus: Hepatocyte stability assay (mouse). Type of series: in vitro ADME. The following applies: mouse, cryopreserved hepatocytes, 10 μM compound, 60 min, read-out: T½.
Text: as §7, §8, §9

Series [3] deals with hepatocytes. Description: Hepatocyte stability assay (human). The note with it: 10 μM compound, 60 min. Type of series: in vitro ADME.
Text: as §7, §8, §9

A short description of series [4]: Hepatocyte stability assay (human). Type of series: in vitro ADME. The note with it: human, cryopreserved hepatocytes, 10 μM compound, 60 min, read-out: T½.
Text: as §7, §8, §9

For another series, the system named is IL-1β. Description: THP-1 AlphaLISA IL-1β cytokine assay. Type of series: cell-based. The note with it: Homo sapiens, THP-1, differentiated THP-1 cells, LPS 24 hr then Nigericin 1 hour. Here is the method:
as §1, §2, §3, §4, §5, §6

The subject of the next series is NRF2. As to the kind of experiment: NRF2 +/- GSH activation assay (DiscoverX PathHunter NRF2 translocation kit). Type of series: cell-based. The following applies: for Emax: normalised to dimethyl fumarate high control; for EC50: Homo sapiens, U2OS, U2OS PathHunter cells.

The IC50 is the concentration that gives 50% inhibition. Low values mean greater potency, high ones weaker potency. For the compound `C=C(CC(=O)OC1(c2ccc(S(F)(F)(F)(F)F)cc2)CCC1)C(=O)O` [Example 18, 2-methylene-4-oxo-4-(1-(4-(pentafluoro-λ^6-sulfaneyl)phenyl)cyclobutoxy)butanoic acid], the IC50 with IL-6 came to 62.1 µM; in the series with IL-1β, 1.8 µM. In addition, the Clint worked out at 50 μL min^−1 10^−6 cells with hepatocytes [1] and 8 μL min^−1 10^−6 cells in the series with hepatocytes [3]. Also, the half-life at 10 μM in series [2] turned out to be 0.633 h; in series [4] it was 3.63 h.

For the compound `C=C(CC(=O)OC1(c2ccc(Br)cn2)CCC1)C(=O)O` [Example 50, 4-(1-(5-bromopyridin-2-yl)cyclobutoxy)-2-methylene-4-oxobutanoic acid], the results for the IC50 with IL-6 and in the series with IL-1β were above 100 µM and 1.5 µM, respectively. Further, the Clint in the series on hepatocytes [1] is given as 4 μL min^−1 10^−6 cells; in the series with hepatocytes [3] it was below 3 μL min^−1 10^−6 cells. The half-life at 10 μM in series [2] was 7 h; in series [4], above 7.67 h.

Regarding `C=C(CC(=O)OC1(c2ncc(C(F)(F)F)cn2)CCC1)C(=O)O` [Example 52, 2-methylene-4-oxo-4-(1-(5-(trifluoromethyl)pyrimidin-2-yl)cyclobutoxy)butanoic acid], the IC50 in the series on IL-6 is above 100 µM; in the series with IL-1β, 11.7 µM. Besides, the Clint in the series with hepatocytes [1] is listed as 5 μL min^−1 10^−6 cells; in the series on hepatocytes [3], below 3 μL min^−1 10^−6 cells. Moreover, the half-life at 10 μM in series [2] is 5.12 h; in series [4], above 7.67 h.

Take `C=C(CC(=O)OC1(c2ccc(C(F)(F)F)nc2)CCC1)C(=O)O` [Example 22, 2-methylene-4-oxo-4-(1-(6-(trifluoromethyl)pyridin-3-yl)cyclobutoxy)butanoic acid]: the IC50 with IL-6 is above 100 µM; in the series on IL-1β, 5.1 µM. Moreover, the Clint in the series on hepatocytes [1] is listed as 4 μL min^−1 10^−6 cells; in the series with hepatocytes [3] it was below 3 μL min^−1 10^−6 cells. The half-life at 10 μM in series [2] was 8.87 h; in series [4] it was above 7.67 h.

For `C=C(CC(=O)OC1(c2ccc(C(F)(F)F)cc2)CS(=O)(=O)C1)C(=O)O` [Example 49, 4-((1,1-dioxido-3-(4-(trifluoromethyl)phenyl)thietan-3-yl)oxy)-2-methylene-4-oxobutanoic acid], the IC50 with IL-6 is above 100 µM; in the series on IL-1β it was 5 µM. In addition, the Clint in the series with hepatocytes [1] worked out at 68 μL min^−1 10^−6 cells; in the series with hepatocytes [3] it was 91 μL min^−1 10^−6 cells. The half-life at 10 μM in series [2] was 0.317 h; in series [4] it was 0.25 h.

For the compound `C=C(CC(=O)OC1(c2ccc(Br)cc2)CCC1)C(=O)O` [Example 5, 4-(1-(4-bromophenyl)cyclobutoxy)-2-methylene-4-oxobutanoic acid], the half-maximal inhibitory concentration (IC50) is above 31.6 µM in the series with IL-6 and 0.7 µM in the series with IL-1β. Besides, the figures for the Clint with hepatocytes [1] and in the series on hepatocytes [3] were 25 μL min^−1 10^−6 cells and 15 μL min^−1 10^−6 cells, respectively. In addition, the results for the half-life at 10 μM in series [2] and in series [4] were 1.13 h and 1.48 h, respectively.

As to `C=C(CC(=O)OCc1ccc(C(F)(F)F)c(F)c1)C(=O)O` [Example 55, 4-((3-fluoro-4-(trifluoromethyl)benzyl)oxy)-2-methylene-4-oxobutanoic acid], the IC50 in the series with IL-6 is above 100 µM; in the series on IL-1β, 19.5 µM. Moreover, the Clint with hepatocytes [1] turned out to be 29 μL min^−1 10^−6 cells. Further, in series [2], the half-life at 10 μM came out at 0.917 h.

Consider `C=C(CC(=O)O[C@]1(c2ccc(C(F)(F)F)cc2)C[C@H](C)C1)C(=O)O` [Example 45, (cis)-4-(3-methyl-1-(4-(trifluoromethyl)phenyl)cyclobutoxy)-2-methylene-4-oxobutanoic acid], for which the results for the IC50 in the series on IL-6 and in the series on IL-1β were above 100 µM and 3.4 µM, respectively. The Clint in the series on hepatocytes [1] is on record as 8 μL min^−1 10^−6 cells; in the series with hepatocytes [3], below 3 μL min^−1 10^−6 cells. Further, the half-life at 10 μM in series [2] was 2.6 h; in series [4], above 7.67 h.

Take `C=C(CC(=O)O[C@]1(c2ccc(C(F)(F)F)cc2)C[C@H](C#N)C1)C(=O)O` [Example 41, 4-((cis)-3-cyano-1-(4-(trifluoromethyl)phenyl)cyclobutoxy)-2-methylene-4-oxobutanoic acid]: the concentration for half-maximal inhibition (IC50) with IL-6 was above 31.6 µM; with IL-1β it was 2.1 µM. Besides, the results for the Clint in the series on hepatocytes [1] and in the series on hepatocytes [3] were 8 μL min^−1 10^−6 cells and below 3 μL min^−1 10^−6 cells, respectively. The results for the half-life at 10 μM in series [2] and in series [4] were 4.87 h and above 7.67 h, respectively.

For the compound `C=C(CC(=O)OC1(c2ccc(C(F)(F)F)cc2)CC(C)C1)C(=O)O` (single isomer, unassigned) [Example 44, 4-(3-methyl-1-(4-(trifluoromethyl)phenyl)cyclobutoxy)-2-methylene-4-oxobutanoic acid], the IC50 in the series on IL-6 is above 100 µM; with IL-1β it was 5.1 µM. The values for the Clint with hepatocytes [1] and in the series with hepatocytes [3] were 9 μL min^−1 10^−6 cells and below 3 μL min^−1 10^−6 cells, respectively. Moreover, the half-life at 10 μM is 2.33 h in series [2] and above 7.67 h in series [4].

As for `C=C(CC(=O)OC1(c2ccc(C(F)F)cc2)CCC1)C(=O)O` [Example 20, 4-(1-(4-(difluoromethyl)phenyl)cyclobutoxy)-2-methylene-4-oxobutanoic acid], the IC50 with IL-6 was found to be 48.7 µM; with IL-1β it was 3 µM. In addition, the Clint in the series with hepatocytes [1] came to 13 μL min^−1 10^−6 cells; in the series with hepatocytes [3] it was 4 μL min^−1 10^−6 cells. The half-life at 10 μM in series [2] came out at 2.33 h; in series [4] it was 7.45 h.

On to `C=C(C(=O)O)C(C)(C)C(=O)OC1(c2ccc(C(F)(F)F)cn2)CCC1` [Example 59, 3,3-dimethyl-2-methylene-4-oxo-4-(1-(5-(trifluoromethyl)pyridin-2-yl)cyclobutoxy)butanoic acid], for which the figures for the IC50 in the series with IL-6 and in the series with IL-1β were above 31.6 µM and 2.9 µM, respectively. Besides, the values for the Clint in the series on hepatocytes [1] and in the series on hepatocytes [3] were below 3 μL min^−1 10^−6 cells and 11 μL min^−1 10^−6 cells, respectively. Moreover, the half-life at 10 μM in series [2] is above 7.67 h; in series [4], 2.3 h.

For orientation: Emax means the greatest response seen or fitted, relative to the assay's reference. Broadly, the EC50 is the concentration giving half of the maximal effect. A low value points to an effect from little substance. With `C=C(CC(=O)O[C@@H](C)c1ccc(C(F)(F)F)cc1)C(=O)O` [Example 4, (S)-2-methylene-4-oxo-4-(1-(4-(trifluoromethyl)phenyl)ethoxy)butanoic acid], the IC50 with IL-6 is above 56.2 µM; in the series on IL-1β, 1.9 µM. Besides, the values for the Emax in the series with NRF2 (+GSH) and in the series with NRF2 (−GSH) were 0% and 4%, respectively. For the same compound, the EC50 with NRF2 (+GSH) and in the series on NRF2 (−GSH) was above 100 µM throughout. The Clint with hepatocytes [3] was 10 μL min^−1 10^−6 cells. In addition, the half-life at 10 μM in series [4] was 2.45 h.
